Source: patent US9302993B2, “8-hydroxy quinoline derivatives” (PRANA BIOTECHNOLOGY LIMITED, priority 2002, dated 2016)
In brackets after ≈: the same amount, converted by molar mass. Several values for one entry are separate records, joined by “and”; a condition that tells them apart may be missing. Equal entries are not always repeated. Where two headings read alike, the source gives them in different places.

Columns and labels:
[1] = system: Aβ in extract of tissue from post mortem human AD brain; experiment: Human brain amyloid solubilisation assay (Assay 9, BAS); assay type: biochemical
Procedure: Assay 9. Human Brain Amyloid Solubilisation Assay
This assay was performed in order to assess the ability of a test compound to mobilise Aβ from the insoluble to the soluble phase of an extract of tissue from post mortem human AD brain.
Up to 0.5 g of plaque-bearing cortex without meninges was homogenized using a DIAX 900 homogenizer (Heudolph and Co, Kelheim, Germany) or other suitable device for three 30-second periods at full speed in 2 ml of ice-cold phosphate-buffered saline, pH 7.4. To obtain the phosphate-buffered saline-extractable fraction, the homogenate was centrifuged at 100,000×g for 30 min and the supernatant removed. Alternatively, the tissue was freeze dried then pulverised to form a powder which was then weighed out into aliquots for extraction as above. Supernatant, either freeze-dried and resuspended or in unconcentrated form, was dissolved in 200 μl of Tris-Tricine sodium dodecyl sulfate (SDS) sample buffer pH 8.3 containing 8% SDS, 10% 2-mercaptoethanol. Aliquots (10 μl) were then boiled for 10 minutes before SDS-polyacrylamide gel electrophoresis. The insoluble fraction of the cortical samples was obtained by resuspending the initial pelleted sample in 1 ml of phosphate-buffered saline. A 50-μl aliquot of this suspension was then boiled in […] of sample buffer as above.
Tris-Tricine polyacrylamide gel electrophoresis was performed by loading appropriately diluted samples on to 10% to 20% gradient gels (Novex, San Diego, Calif.) followed by transfer on to 0.2-μm nitrocellulose membrane (Bio-Rad, Hercules, Calif.). Aβ was detected by using monoclonal antibody W02, which detects residues 5 through 8, […] (or another suitable antibody) in conjunction with horseradish peroxidase-conjugated rabbit anti-mouse IgG (Dako, Denmark), and visualized by using enhanced chemiluminescence (eg ECL; Amersham Life Science, Buckinghamshire, UK). Each gel included three lanes containing 0.5, 1, and 2 ng of synthetic Aβ40 (Keck Laboratory, Yale University, New Haven, Conn.) as reference standards.
Blot films were scanned by using a suitable imaging system such as the UVP gel documentation system, and densitometry performed using suitable software, eg UVP Labworks. The dynamic range of the film/scanner was determined by using a step tablet (No. 911ST600, Kodak, Rochester N.Y.), a calibrated film exposed by the manufacturer to provided steps of known increasing intensity. The quantifiable range of signal intensity for densitometric analysis of the mono- and dimeric Aβ bands was based on the comparison with a curve obtained by scanning and densitometry of the step tablet.
All samples were analysed at least twice, and gel loadings and dilutions were adjusted to fit within the quantifiable region of the standard curve. […] The insoluble Aβ being comprised of the pelletable fraction derived from the insoluble amyloid plaque from the above cortical samples and the soluble fraction comprising monomeric and/or oligomeric soluble Aβ.

[2] = biological target: T1, hydrogen peroxide generation by Aβ in the presence of copper (Homo sapiens, UniProt P05067); experiment: Fluorometric H2O2 assay (Assay 1); assay type: biochemical; settings: DCF/HRP, 37 C 60 min, several values in one cell = repeat determinations
T1 construct: The reaction solutions contained Aβ 1-42 at concentrations in the range of 50 nM to 1 μM
T1 sequence (P05067 672-713 limits assumed): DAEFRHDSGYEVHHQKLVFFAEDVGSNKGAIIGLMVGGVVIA
Method in brief: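 Aβ1-42 (50 nM–1 μM) with Cu-glycine (2 Cu-Gly : 1 Aβ) and a reductant (dopamine 5 μM or ascorbic acid) was incubated 60 min at 37 °C in PBS pH 7.4 with test compound. H2O2 was detected with 100 μM deacetylated DCF and 0.1 μM HRP by fluorescence against H2O2 standards.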

[3] = system: Neuronal cortical cells treated with Aβ1-42; experiment: Assay for Aβ neurotoxicity and Aβ neuroprotection (Assay 3(c)); assay type: cell-based, mouse; settings: 20 uM Aβ1-42, 4 days, MTS
Procedure: Media was then replaced with Neurobasal media (Invitrogen Life Technologies) and B27 supplements (Invitrogen Life Technologies). Cultures were maintained at 37° C. in 5% CO2. Prior to experimentation, the culture medium was replaced with Neurobasal media and B27 minus antioxidants (Invitrogen Life Technologies).
(c) Assay for Aβ Neurotoxicity and Aβ Neuroprotection
Neuronal cortical cells were cultured for five days as per Assay 2. On day six the neurobasal (NB) media (Invitrogen Life Technologies) and B27 supplement (Invitrogen Life Technologies) were replaced with NB media and B27 supplement (no antioxidants). On day six, test compounds were individually added to the neuronal cell cultures:
Aβ was initially dissolved in 20 mM NaOH to a concentration of 1 mM and sonicated for 5 minutes. The peptide was then diluted in H2O and 10×PBS to a final concentration of 200 uM Aβ in 1×PBS. The peptide was again sonicated for 5 minutes and then spun at 14000 rpm for 5 min and transferred to a fresh tube.
The test compounds were dissolved in 100% DMSO to a concentration of 2.5 mM (10 mM if excess compound was weighed out per vial—then diluted to 2.5 mM). […] Test compounds were not added directly to cells, instead they were added to a 48 well ‘Drug Plate’ as comprised below:
The Drug Plate was incubated at 37° C. for 15 mins. 200 ul of each well was added in triplicate to the corresponding cell plate. The cell plate was incubated at 37 C, for 4 days.
On the 4th day after treating the cells the assay is completed by adding MTS to the cells.

[4] = system: Neuronal cortical cells; experiment: Assay for test compound cytoxicity, MTS (Assay 3(d)); assay type: cell-based, mouse
[5] = system: APP2576 transgenic mouse; experiment: Effect of administration of test compounds on Aβ deposits in transgenic animals (Assay 11); assay type: in vivo; set-up: concentration or dose not given beside the values; settings: transgenic mouse brains
[6] = Turbidimetric solubility measurements (Assay 13); assay type: physicochemical; settings: kinetic from dmso stock, 1% DMSO, nephelometry
Procedure: Turbidimetric Solubility Measurements
The solubility estimate was measured at both pH 2.0 and pH 6.5. This is within the pH range that can be anticipated along the proximal gastrointestinal tract in humans.
The compounds were dissolved in DMSO to appropriate concentrations and then spiked into either 0.01M HCl (approx. pH=2.0) or pH 6.5 isotonic phosphate buffer, the final DMSO concentration being 1%. Samples were then analysed via Nephelometry to determine a solubility range. [as per D. Bevan and R. S. Lloyd, Anal. Chem. 2000, 72, 1781-1787].

[7] = E Log D, chromatographic method (Assay 13); assay type: physicochemical; settings: SUPELCOSIL LC-ABZ column with octanol saturated mobile phase, pH 7.4; read-out: E Log D7.4
Procedure: Effective Log D values were measured using a chromatographic method employing a SUPELCOSIL LC-ABZ column using an octanol saturated mobile phase at pH 7.4.

[8] = system: APP2576 transgenic mouse; experiment: Transgenic mouse brain immunohistochemistry, plaque abundance (Assay 15); assay type: in vivo
Source text: Assay 15. Transgenic Mouse Brain Immunohistochemistry
The APP2576 transgenic mouse (Hsiao et al., 1996) as referred to in Assay 11 were utilized in this assay. The contralateral formalin-fixed mouse brain tissue was coronally cut. Sections (10 μm) were taken from the corresponding sites and treated with 80% formic acid for antigen retrieval. The primary antibody used was monoclonal antibody 1E8, which recognizes epitopes between residues 18 and 22 of Aβ (SmithKline Beecham, UK). Immunoreactivity was developed with secondary antibody linked to horseradish peroxidase (using a 3,39-diaminobenzidinechromagen) (Dako) and alkaline phosphatase (using 5-bromo-4-chloro 3-indoxyl phosphate and nitroblue tetrazolium chloride chromagen) (Dako). Plaque abundance per section was assessed by two operators blinded to treatment according to the following scale:
1=plaques present but very sparse
2=several plaques present
3=numerous plaques visible in restricted areas
4=plaques abundant and not restricted to any particular area.
Intermediate values eg 2.5 were assigned where applicable.
Students' t ‘test was used for comparisons between groups.

[9] = solubilising plaques relative to PBS
[10] = Peroxide IC50, Aβ 1-42 with Cu-Gly
[11] = BL6J×129sv, mouse, 4 days, 1 uM
[12] = BL6J×129sv, mouse, 4 days, 10 uM
[13] = Aβ 1-42 with Cu-Gly, read-out: Peroxide IC50

O=S(=O)(O)c1ccc(O)c2ncccc12 [compound 41]
BAS Score [1, 9]: + | IC50 [2, 10]: 500 nM | % inhibition Abeta toxicity [3]: 12% | Test Compound Cytoxicity 0.1 um ([4]; BL6J×129sv, mouse, 4 days): 95% | Test Compound Cytoxicity 1 uM [4, 11]: 100 | Test Compound Cytoxicity 10 uM [4, 12]: 100 | Viable 10 uM [4, 12]: 81.33

Oc1c(Cl)cc(Cl)c2cccnc12 [compound 45]
BAS Score [1, 9]: ++ | IC50 [2, 13]: 700 nM | % inhibition Abeta toxicity [3]: 28% | Test Compound Cytoxicity 0.1 um ([4]; BL6J×129sv, mouse, 4 days): 100% | Test Compound Cytoxicity 1 uM [4, 11]: 92 | Test Compound Cytoxicity 10 uM [4, 12]: 67

CCCCN(c1ccc2cccc(O)c2n1)c1ccc2cccc(O)c2n1 [compound 53]
BAS Score [1, 9]: + | IC50 [2, 13]: 300 nM | % inhibition Abeta toxicity [3]: −75% | Test Compound Cytoxicity 0.1 um ([4]; BL6J×129sv, mouse, 4 days): 96% | Test Compound Cytoxicity 1 uM [4, 11]: 95 | Test Compound Cytoxicity 10 uM [4, 12]: 100 | Viable 10 uM [4, 12]: 95.8

Nc1ccc2cccc(O)c2n1 [compound 54]
BAS Score [1]: + | IC50 [2, 10]: 1000 nM | % inhibition Abeta toxicity [3]: 100% | Cell viability (% viable cells, MTS) ([4]; 1 uM, 4 days, in %): 97 | Viable 10 uM ([4]; 10 uM test compound, repeated lines = repeat determinations, in %): 99.57 | Cell viability (% viable cells, MTS) ([4]; 10 uM, 4 days, in %): 61 | Cell viability (% viable cells, MTS) ([4]; 0.1 um, 4 days): 89%

CN(c1ccc2cccc(O)c2n1)c1ccc2cccc(O)c2n1 [compound 56]
BAS Score [1, 9]: + | IC50 [2, 13]: 700 nM | % inhibition Abeta toxicity [3]: 17% | Test Compound Cytoxicity 0.1 um ([4]; BL6J×129sv, mouse, 4 days): 108% | Test Compound Cytoxicity 1 uM [4, 11]: 74 | Test Compound Cytoxicity 10 uM [4, 12]: 31

Oc1ccc(/C=C/c2ccc3cccc(O)c3n2)cc1 [compound 89]
BAS Score [1, 9]: + | IC50 [2, 13]: 3000 nM | % inhibition Abeta toxicity [3]: −31% | Test Compound Cytoxicity 0.1 um ([4]; BL6J×129sv, mouse, 4 days): 87% | Test Compound Cytoxicity 1 uM [4, 11]: 92 | Test Compound Cytoxicity 10 uM [4, 12]: 101 | Viable 10 uM [4, 12]: 74.28

Oc1c(Br)cc(-c2ccccc2)c2cccnc12 [compound 806]
BAS Score [1, 9]: ++ | IC50 [2, 13]: < 1200 nM | % inhibition Abeta toxicity [3]: 36% | Test Compound Cytoxicity 0.1 um ([4]; BL6J×129sv, mouse, 4 days): 99% | Test Compound Cytoxicity 1 uM [4, 11]: 78 | Test Compound Cytoxicity 10 uM [4, 12]: 38

COc1cccc(-c2cc(Cl)c3cccnc3c2O)c1 [compound 810]
BAS Score [1, 9]: + | IC50 [2, 13]: > 10000 nM | % inhibition Abeta toxicity [3]: 11% | Test Compound Cytoxicity 0.1 um ([4]; BL6J×129sv, mouse, 4 days): 100% | Test Compound Cytoxicity 1 uM [4, 11]: 85 | Test Compound Cytoxicity 10 uM [4, 12]: 57

Cc1ccccc1-c1cc(Cl)c2cccnc2c1O [compound 854]
BAS Score [1, 9]: + | IC50 [2, 13]: < 780 nM | % inhibition Abeta toxicity [3]: 22% | Test Compound Cytoxicity 0.1 um ([4]; BL6J×129sv, mouse, 4 days): 94% | Test Compound Cytoxicity 1 uM [4, 11]: 81 | Test Compound Cytoxicity 10 uM [4, 12]: 36

O=C(NCCc1c[nH]cn1)c1ccc2cccc(O)c2n1 [compound 948]
BAS Score [1, 9]: + | IC50 [2, 13]: 190 nM | % inhibition Abeta toxicity [3]: 9% | Test Compound Cytoxicity 0.1 um ([4]; BL6J×129sv, mouse, 4 days): 100% | Test Compound Cytoxicity 1 uM [4, 11]: 79 | Test Compound Cytoxicity 10 uM [4, 12]: 85 | Viable 10 uM [4, 12]: 106.66

O=C(NCCc1ccccn1)c1ccc2cccc(O)c2n1 [compound 950]
BAS Score [1, 9]: + | IC50 [2, 13]: 250 nM | % inhibition Abeta toxicity [3]: 5% | Test Compound Cytoxicity 0.1 um ([4]; BL6J×129sv, mouse, 4 days): 95% | Test Compound Cytoxicity 1 uM [4, 11]: 88 | Test Compound Cytoxicity 10 uM [4, 12]: 89 | Viable 10 uM [4, 12]: 92.8

O=C(Nc1nccs1)c1ccc2cccc(O)c2n1 [compound 952]
BAS Score [1, 9]: + | IC50 [2, 13]: < 810 nM | % inhibition Abeta toxicity [3]: 13% | Test Compound Cytoxicity 0.1 um ([4]; BL6J×129sv, mouse, 4 days): 98% | Test Compound Cytoxicity 1 uM [4, 11]: 91 | Test Compound Cytoxicity 10 uM [4, 12]: 53 | Viable 10 uM [4, 12]: 99.52

Cc1cnc(NC(=O)c2ccc3cccc(O)c3n2)s1 [compound 953]
BAS Score [1, 9]: + | IC50 [2, 13]: < 4240 nM and 620 nM | % inhibition Abeta toxicity [3]: 25% | Test Compound Cytoxicity 0.1 um ([4]; BL6J×129sv, mouse, 4 days): 101% | Test Compound Cytoxicity 1 uM [4, 11]: 85 | Test Compound Cytoxicity 10 uM [4, 12]: 53 | Viable 10 uM [4, 12]: 67.8

Oc1c(Cl)cc(Cl)c2ccc(-c3ccccn3)nc12 [compound 1052, 5,7-dichloro-8-hydroxy-2-(2-pyridyl)quinoline]
Insoluble fraction. % change compared with control. ([5]; insoluble Aβ): −22% | Soluble fraction. % change compared with control. ([5]; soluble Aβ): negligible | solubility ([6]; aqueous buffer, pH 6.5 isotonic phosphate buffer, read-out: Solubility pH 6.5): < 3.1 µg/mL | solubility ([6]; simulated gastric fluid, 0.01M HCl (approx. pH 2.0), read-out: Solubility (μg/mL) 0.01M HCl): 6.3 to 12.5 µg/mL (≈ 21.6 to 42.9 µM) | BAS Score [1, 9]: + | chromatographic logD [7]: 2.85 | % difference from control (sham treated animal) ([8]; plaque score): −8% | Mean plaque score ([8]; scale 0 to 4): 3.2 | % inhibition Abeta toxicity [3]: 19% | Test Compound Cytoxicity 1 uM [4, 11]: 63 | Test Compound Cytoxicity 10 uM [4, 12]: 32
